Patent publication US20200268728A1, “DRUG TARGETING CANCER STEM CELL” (Sumitomo Dainippon Pharma Co., Ltd., priority 2016, published 2020)

Legend:
Experiment in all cases: Sphere-forming ability of cultured cancer cell lines (Test Example 10)
Assay type in all cases: cell-based
[1] = system: NCI-H1437; settings: Homo sapiens, 96 h; NCI-H1437 lung cancer cell line, 4 days
Description: (§1) The colon cancer cell lines SW480, DLD1, HCT15, HT29, SW948, LS174T, LS411N, SW620, LoVo, HCT116, Colo205, and Hs698T, the pancreatic cancer cell lines MiaPaca2, HPAFII, Capan2, and Panc1, the head and neck cancer cell line FaDu, the breast cancer cell lines HCC1954 and T47D, the bladder cancer cell line SW780, the liver cancer cell line HepG2, the neuroblastoma cell lines U87MG and U251, the lung cancer cell lines H460, H1437, and A549, the prostate cancer cell lines DU145 and PC3, the soft tissue tumor cell line HT1080, the testicular cancer cell line NTERA2, and the ovarian cancer cell line SKOV3 was suspended in the sphere formation medium (DMEM-F12 medium of Test Example 3 was used), and seeded in a 384-well plate with Ultra-Low Attachment surface (Corning) in an amount of 5×10^3-10×10^3 cells/well. The compound of Example 24 was then added into each well to adjust the final concentration to 10-10000 nmol/L. The plate was cultured at 37° C. and 5% carbon dioxide in an incubator for 4 days. After the culture, CellTiterGlo (Promega) was added into all of the wells, and the plate was allowed to stand at room temperature for 10 minutes to measure the intensity of luminescence of each well. The concentrations of each test compound for 50% inhibition of cell proliferation to the cell lines (Sphere IC50 value; μmol/L) was calculated from the measured intensity of luminescence. When each gene mutation in Table is reported, the mutation is represented by “+” (gene mutation information is cited from the ATCC website (https://www.atcc.org/en/Products/Cells_and_Microorganisms/Cell_Lines/Cell_lines_by_genetic_mutation.aspx), Cancer Cell Line Encyclopedia (https://portals.broadinstitute.org/ccle_legacy/home), Proc. Natl. Acad. Sci. USA 94 (1997) 10330-10334).

[2] = system: HCT 116; settings: Homo sapiens, 96 h; HCT 116 colon cancer cell line, 4 days
Description: as §1

[3] = system: SK-OV-3; settings: Homo sapiens, 96 h; SK-OV-3 ovarian cancer cell line, 4 days
Description: as §1

[4] = system: U-87 MG; settings: Homo sapiens, 96 h; U-87 MG glioblastoma cell line, 4 days
Description: as §1

[5] = system: NTERA-2; settings: NTERA2, 96 h; NTERA-2 testicular cancer cell line, 4 days
Description: as §1

[6] = system: PC-3; settings: Homo sapiens, 96 h; PC-3 prostate cancer cell line, 4 days
Description: as §1

[7] = system: SW620; settings: Homo sapiens, SW-620, 96 h; SW620 colon cancer cell line, 4 days
Description: as §1

[8] = system: DU 145; settings: Homo sapiens, 96 h; DU 145 prostate cancer cell line, 4 days
Description: as §1

[9] = system: SW 780; settings: Homo sapiens, SW780, 96 h; SW 780 bladder cancer cell line, 4 days
Description: as §1

[10] = system: DLD-1; settings: Homo sapiens, 96 h; DLD-1 colon cancer cell line, 4 days
Description: as §1

[11] = system: NCI-H460; settings: Homo sapiens, 96 h; NCI-H460 lung cancer cell line, 4 days
Description: as §1

[12] = system: HT-29; settings: Homo sapiens, 96 h; HT-29 colon cancer cell line, 4 days
Description: as §1

**Q.** Which results are given for O=C(Nc1cn(Cc2cc(F)c(F)c(F)c2)cn1)c1cnc(CO)c(C(F)F)c1 [Example 24, 5-(difluoromethyl)-6-(hydroxymethyl)-N-[1-(3,4,5-trifluorobenzyl)-1H-imidazol-4-yl]nicotinamide]?
**A.** IC50 [1]: 3880 nM; IC50 [2]: 91 nM; IC50 [3]: > 10000 nM; IC50 [4]: 89 nM; IC50 [5]: > 10000 nM; IC50 [6]: > 10000 nM; IC50 [7]: 27 nM; IC50 [8]: > 10000 nM; IC50 [9]: 56 nM; IC50 [10]: 7 nM; IC50 [11]: 883 nM; IC50 [12]: 9 nM
